Columns and labels:
H9c2 = test: protection of cardiomyocytes from stress damage, SAR follow-up, cell-based, panel, H9c2 and HL-1, H2O2, 2-deoxyglucose, ATP luminescence (AID 651642)
HL-1 = test: as above
[1] = H9c2/HL-1 cardiomyocyte 2-deoxyglucose damage, mean of runs, with 2-deoxyglucose, mean IC50 across panel
[2] = H9c2/HL-1 cardiomyocyte 2-deoxyglucose damage, run 1, with 2-deoxyglucose
[3] = H9c2/HL-1 cardiomyocyte 2-deoxyglucose damage, run 2, with 2-deoxyglucose
[4] = H9c2/HL-1 cardiomyocyte 2-deoxyglucose damage, run 3, with 2-deoxyglucose
[5] = H9c2/HL-1 cardiomyocyte 2-deoxyglucose damage, run 4, with 2-deoxyglucose
[6] = H9c2/HL-1 cardiomyocyte H2O2 oxidative damage, run 1, with H2O2
[7] = H9c2/HL-1 cardiomyocyte H2O2 oxidative damage, run 2, with H2O2
[8] = H9c2/HL-1 cardiomyocyte H2O2 oxidative damage, run 3, with H2O2
[9] = H9c2/HL-1 cardiomyocyte H2O2 oxidative damage, run 4, with H2O2
[10] = H9c2/HL-1 cardiomyocyte H2O2 oxidative damage, mean of runs, with H2O2, mean IC50 across panel

Structure (SMILES)	IC50 (H9c2; [1]) [µM]	IC50 (H9c2; [2]) [µM]	IC50 (H9c2; [3]) [µM]	IC50 (H9c2; [4]) [µM]	IC50 (H9c2; [5]) [µM]	IC50 (H9c2; [6]) [µM]	IC50 (H9c2; [7]) [µM]	IC50 (H9c2; [8]) [µM]	IC50 (H9c2; [9]) [µM]	IC50 (HL-1; [1]) [µM]	IC50 (HL-1; [2]) [µM]	IC50 (HL-1; [3]) [µM]	IC50 (HL-1; [4]) [µM]	IC50 (HL-1; [5]) [µM]	IC50 (HL-1; [10]) [µM]	IC50 (HL-1; [6]) [µM]	IC50 (HL-1; [7]) [µM]	IC50 (HL-1; [8]) [µM]	IC50 (HL-1; [9]) [µM]	IC50 (H9c2; [10]) [µM]
COc1ccc2c(c1OC)C(=O)N1c3ccccc3C(=O)N(Cc3cccc(F)c3)C21 (stereo not drawn)	> 79	> 79	> 79	> 79	> 79	1.15	1.56	> 79	> 79	6.54	3.49	4.29	9.07	9.32	> 79	> 79	> 79	> 79	> 79	
COc1cc(-c2cc(C(=O)NCC(=O)Nc3cccc(C(C)=O)c3)c3cc(C)ccc3n2)cc(OC)c1OC		> 79	> 79	19.9	24.4	12.5	13.5	5.91	8.51	23	13.6	14.8	29.8	33.9	36.9	34.9	44.3	25.5	43.1	10.1
COc1ccc2c(c1OC)C(=O)N1c3ccccc3C(=O)N(Cc3ccccn3)C21 (stereo not drawn)	> 79	> 79	> 79	> 79	> 79	7.56	10.3	> 79	> 79	> 79	> 79	> 79	> 79	> 79	> 79	> 79	> 79	> 79	> 79	
COc1cc(-c2cc(C(=O)NCC(=O)Nc3cccc(C(C)=O)c3)c3ccccc3n2)cc(OC)c1OC	8.19	9.43	9.75	6.11	7.46	1.67	2.65	0.99	1.13	6.18	2.77	3.2	8.97	9.78	6.32	4.49	9.07	4.55	7.16	1.61
CCOC(=O)c1cccc(NC(=O)c2cc(-c3cc(OC)c(OC)c(OC)c3)nc3ccc(F)cc23)c1	> 79	> 79	> 79	> 79	> 79	9	10.7	> 79	3.82		3.32	4.09	> 79	> 79	4.11	2.77	7.9	2.4	3.37	
COc1cc(-c2cc(C(=O)Nc3cccc(C(N)=O)c3)c3ccccc3n2)cc(OC)c1OC		31.1	31.3	> 79	> 79	2.23	2.4	2.49	2.57	14.2	7.32	8.09	19.2	22.1	4.97	4.52	5.96	2.31	7.08	2.42
CCOC(=O)c1cccc(NC(=O)c2cc(-c3cc(OC)c(OC)c(OC)c3)nc3ccc(Br)cc23)c1	> 79	> 79	> 79	> 79	> 79	2.86	3.15	> 79	> 79	> 79	> 79	> 79	> 79	> 79		> 79	> 79	> 79	4.69	
COc1ccccc1CN1C(=O)c2ccccc2N2C(=O)c3c(ccc(OC)c3OC)C12 (stereo not drawn)		> 79	> 79	43.5	46.2	> 79	0.303	> 79	> 79	5.37	2.86	3.96	6.95	7.71		> 79	> 79	4.54	12	
COc1cc(-c2cc(C(=O)Nc3cccc(C#N)c3)c3ccccc3n2)cc(OC)c1OC	> 79	> 79	> 79	> 79	> 79	7.93	8.58	> 79	6.2		5.37	7.28	> 79	> 79		> 79	> 79	6.09	11.1	
COc1cc(-c2cc(C(=O)Nc3cccc(C(=O)NCc4ccccc4)c3)c3ccccc3n2)cc(OC)c1OC	3.38	3.81	4.57	2.32	2.81	1.54	1.62	0.678	0.686	1.36	0.74	0.813	1.85	2.05	3.33	1.7	2.25	2.4	6.96	1.13
CCOC(=O)c1cccc(NC(=O)c2cc(-c3cc(OC)c(OC)c(OC)c3)nc3ccccc23)c1	> 79	> 79	> 79	> 79	> 79	3.9	4.44	> 79	> 79		3.23	3.46	> 79	> 79	4.62	3.4	4.59	3.78	6.72	
COc1ccc2c(c1OC)C(=O)N1c3ccccc3C(=O)N(Cc3ccccc3F)C21 (stereo not drawn)	34.3	36.6	37.9	31.3	31.6	1.35	2.03	> 79	> 79	7.16	2.26	2.31	8.41	15.7	> 79	> 79	> 79	> 79	> 79	
CCOC(=O)c1cccc(NC(=O)CNC(=O)c2cc(-c3cc(OC)c(OC)c(OC)c3)nc3ccc(Br)cc23)c1	4.52	4.66	6.47	3.26	3.71	1.44	1.74	0.953	1.24	1.87	1.25	1.42	1.96	2.86	2.04	2.32	2.54	1.26	2.05	1.34

Reference: PubChem BioAssay AID651642 (Sanford-Burnham Center for Chemical Genomics, 2012)
